This note sets out measurements from patent US9290507B2, “B-RAF kinase inhibitors” (Boehringer Ingelheim International GmbH, priority 2010, dated 2016).

pIC50: −log10 of the molar value.

For this assay, the target named is B-Raf (V600E)-kinase (Homo sapiens (Human), UniProt P15056, V600E). The assay can be described thus: Kinase test B-Raf (V600E). The format is biochemical. The conditions noted are these: 1 h preincubation, 250 μM ATP. As for the experimental part:
In a dilution series 10 μL/well of test substance solution are placed in a multiwell plate. The dilution series is selected so that generally a range of concentrations of 2 μM to 0.119 nM or 0.017 nM is covered. If necessary the initial concentration of 2 μM is changed to 50 μM, 10 μM or 0.4 μM or 0.2857 μM and further dilution is carried out accordingly. The final concentration of DMSO is 5%. 10 μL/well of the B-Raf (V600E)-kinase solution are pipetted in (containing 0.5 ng B-Raf (V600E)-kinase (e.g. from Upstate) in 20 mM Tris-HCl pH 7.5, 0.1 mM EDTA, 0.1 mM EGTA, 0.286 mM sodium orthovanadate, 10% glycerol, 1 mg/mL bovine serum albumin, 1 mM dithiothreitol) and the mixture is incubated for 1 h at RT under with shaking. The kinase reaction is started by the addition of 20 μL/well ATP solution [final concentration: 250 μM ATP, 30 mM Tris-HCl pH 7.5, 0.02% Brij, 0.2 mM sodium orthovanadate, 10 mM magnesium acetate, 0.1 mM EGTA, phosphatase cocktail (Sigma, #P2850, dilution recommended by the manufacturer)] and 10 μL/well MEK1 solution [containing 50 ng biotinylated MEK1 (prepared from purified MEK1 according to standard procedure, e.g. with EZ-Link Sulpho-NHS-LC-Biotin reagent, Pierce, #21335)] and carried out for 60 min at RT with constant shaking. The reaction is stopped by the addition of 12 μL/well of a 100 mM EDTA solution and incubation is continued for a further 5 min. 55 μL/well of the reaction solution are transferred into a streptavidin-coated plate (e.g. Streptawell HighBond, Roche, #11989685001) and shaken gently for 1 h at RT, in order to bind biotinylated MEK1 to the plate. After elimination of the liquid the plate is washed five times with 200 μL/well of 1×PBS and 100 μL/well solution of primary antibody plus europium-labelled secondary antibody [Anti Phospho-MEK (Ser217/221), Cell Signaling, #9121 and Eu-N1 labelled goat-anti-rabbit antibody, Perkin Elmer, #AD0105] is added, the primary antibody is diluted 1:2000 and the secondary antibody is diluted to 0.4-0.5 μg/mL in Delfia Assay Buffer (Perkin Elmer, #1244-111). After 1 h shaking at RT the solution is poured away and washed five times with 200 μL/well Delfia Wash Buffer (Perkin Elmer, #4010-0010/#1244-114). After the addition of 200 μL/well Enhancement Solution (Perkin Elmer, #4001-0010/#1244-105) the mixture is shaken for 10 min at RT and then measured in a Wallac Victor using the program “Delfia Time Resolved Fluorescence (Europium)”. IC50 values are obtained from these dosage-activity curves using a software program (GraphPadPrizm).

B-Raf (V600E)-kinase, sequence (P15056 whole entry V600E): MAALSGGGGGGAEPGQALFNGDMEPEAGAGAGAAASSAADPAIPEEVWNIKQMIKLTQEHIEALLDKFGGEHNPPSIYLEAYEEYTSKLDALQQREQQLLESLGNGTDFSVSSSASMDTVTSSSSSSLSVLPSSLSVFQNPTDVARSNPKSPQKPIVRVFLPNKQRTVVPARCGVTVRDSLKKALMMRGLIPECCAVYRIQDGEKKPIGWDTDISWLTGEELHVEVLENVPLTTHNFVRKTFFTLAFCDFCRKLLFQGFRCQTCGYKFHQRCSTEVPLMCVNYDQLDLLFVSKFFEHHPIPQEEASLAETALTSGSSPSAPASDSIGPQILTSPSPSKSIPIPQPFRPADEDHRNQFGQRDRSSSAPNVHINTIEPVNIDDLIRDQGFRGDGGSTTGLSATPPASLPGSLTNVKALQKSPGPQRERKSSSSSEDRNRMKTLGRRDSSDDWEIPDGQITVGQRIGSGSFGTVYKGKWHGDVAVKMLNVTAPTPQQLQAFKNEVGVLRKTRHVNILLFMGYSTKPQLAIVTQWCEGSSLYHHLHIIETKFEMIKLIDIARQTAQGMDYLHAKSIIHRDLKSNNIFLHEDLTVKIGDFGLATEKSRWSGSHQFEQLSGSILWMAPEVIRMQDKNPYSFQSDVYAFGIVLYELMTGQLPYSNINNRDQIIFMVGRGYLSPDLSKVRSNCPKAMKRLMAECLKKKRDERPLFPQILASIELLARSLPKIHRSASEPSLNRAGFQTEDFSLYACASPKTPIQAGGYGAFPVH

`Cc1ccc(C(=O)Nc2cc(C(F)(F)F)ccn2)cc1-n1cc(-c2cncc(N3CCCOCC3)c2)nn1` [I-67]: the pIC50 is 7.62.

Turning to `Cc1ccc(C(=O)Nc2cc(C(F)(F)F)ccn2)cc1-n1cc(-c2cncc(N3CC[C@H](N(C)C)C3)c2)nn1` [I-79], the pIC50 was 8.05.

In turn, `CCOCCN1CCN(c2cncc(-c3cn(-c4cc(C(=O)Nc5cc(C(C)(C)C)on5)ccc4C)nn3)c2)CC1` [I-49] showed a pIC50 of 7.54.

Regarding `Cc1ccc(C(=O)Nc2cc(C(C)(C)C)on2)cc1-n1cc(-c2cncc(N(C)C)c2)nn1` [I-18], the pIC50 is 7.89.

Turning to `Cc1ccc(C(=O)Nc2cc(C(F)(F)F)ccn2)cc1-n1cc(-c2cncc(N3CCC(N(C)C)CC3)c2)nn1` [I-60], the pIC50 was 8.10.

Compound `Cc1ccc(NC(=O)c2cc(CN(C)C)c(C(C)(C)C)o2)cc1-n1cc(-c2cncc(N3CCOCC3)c2)nn1` [II-44] gave a pIC50 of 7.96.

Take `COCCN1CCN(c2cncc(-c3cn(-c4cc(C(=O)Nc5cc(C(F)(F)F)ccn5)ccc4C)nn3)c2)CC1` [I-61]: the pIC50 was 7.96.

Consider `COCCCN1CCN(c2cncc(-c3cn(-c4cc(C(=O)Nc5cc(C(C)(C)C)on5)ccc4C)nn3)c2)CC1` [I-40], for which the pIC50 is 7.72.

`Cc1ccc(C(=O)Nc2cc(C(C)(C)C)on2)cc1-n1cc(-c2cncc(N3CCCC3)c2)nn1` [I-39] had a pIC50 of 7.39.

Consider `Cc1ccc(C(=O)Nc2cc(C(C)(C)C)on2)cc1-n1cc(-c2cncc(N3CCN(C4CC4)CC3)c2)nn1` [I-26], for which the pIC50 was 7.55.

`Cc1ccc(C(=O)Nc2cc(C(C)(C)C)on2)cc1-n1cc(-c2cncc(N(C)CCN(C)C)c2)nn1` [I-3] had a pIC50 of 8.15.

Compound `Cc1ccc(C(=O)Nc2cc(C(F)(F)F)ccn2)cc1-n1cc(-c2cncc(NC3CCN(C)C3)c2)nn1` (stereo not drawn) [I-63] showed a pIC50 of 8.22.

With `Cc1ccc(C(=O)Nc2cc(C(C)(C)C)on2)cc1-n1cc(-c2cncc(NC(C)(C)C)c2)nn1` [I-12], the negative logarithm of the IC50 (pIC50) is 7.74.

The compound `Cc1ccc(C(=O)Nc2cc(C(F)(F)F)ccn2)cc1-n1cc(-c2cncc(N3CCN(C(C)C)CC3)c2)nn1` [I-88] showed a pIC50 of 8.10.

The compound `Cc1ccc(NC(=O)c2cc(C(C)(C)C)nn2C)cc1-n1cc(-c2cncc(N3CCN(C)CC3)c2)nn1` [II-6] showed a pIC50 of 8.10.

For the compound `Cc1ccc(NC(=O)c2ccc(C(C)(C)C)s2)cc1-n1cc(-c2cncc(N3CCN(CC4CC4)CC3)c2)nn1` [II-31], the pIC50 is 8.10.

With `COCCCN1CCN(c2cncc(-c3cn(-c4cc(NC(=O)c5ccc(C(C)(C)C)o5)ccc4C)nn3)c2)CC1` [II-17], the pIC50 is 9.00.

`C=CCN1CCN(c2cncc(-c3cn(-c4cc(NC(=O)c5ccc(C(C)(C)C)o5)ccc4C)nn3)c2)CC1` [II-18] gave a pIC50 of 8.30.

Take `Cc1ccc(NC(=O)c2cc(CNC(C)C)c(C(C)(C)C)o2)cc1-n1cc(-c2cncc(N3CCOCC3)c2)nn1` [II-2]: the pIC50 was 7.85.

With `Cc1ccc(C(=O)Nc2cc(C(C)(C)C)on2)cc1-n1cc(-c2cncc(N3CCCN(C)CC3)c2)nn1` [I-91], the negative logarithm of the IC50 (pIC50) is 8.10.

The compound `Cc1ccc(C(=O)Nc2cc(C(C)(C)C)on2)cc1-n1cc(-c2cncc(N3CCN(C(C)(C)C)CC3)c2)nn1` [I-4] showed a pIC50 of 7.92.

The compound `Cc1ccc(NC(=O)c2cc(CNC(C)(C)C)c(C(C)(C)C)o2)cc1-n1cc(-c2cncc(N3CCOCC3)c2)nn1` [II-40] had a pIC50 of 7.96.

`CCCN1CCN(c2cncc(-c3cn(-c4cc(C(=O)Nc5cc(C(C)(C)C)on5)ccc4C)nn3)c2)CC1` [I-41]: the pIC50 was 8.10.

Consider `Cc1ccc(C(=O)Nc2cc(C(C)(C)C)on2)cc1-n1cc(-c2cncc(NCC(F)(F)F)c2)nn1` [I-21], for which the pIC50 is 7.30.

In turn, `Cc1ccc(C(=O)Nc2cc(C(C)(C)C)on2)cc1-n1cc(-c2cncc(N(C)C3CCOCC3)c2)nn1` [I-29] had a pIC50 of 8.15.

As for `Cc1ccc(C(=O)Nc2cc(C(C)(C)C)on2)cc1-n1cc(-c2cncc(N3CC(N4CCN(C)CC4)C3)c2)nn1` [I-93], the pIC50 was 8.10.

Consider `Cc1ccc(C(=O)Nc2cc(C(F)(F)F)ccn2)cc1-n1cc(-c2cncc(N3CCOCC3)c2)nn1` [I-72], for which the pIC50 is 7.92.

Regarding `Cc1ccc(C(=O)Nc2cc(C(C)(C)C)on2)cc1-n1cc(-c2cncc(N3CCN(C)CC3)c2)nn1` [I-1], the pIC50 is 8.10.

As for `Cc1ccc(C(=O)Nc2cc(C(F)(F)F)ccn2)cc1-n1cc(-c2cncc(N3CCCC3)c2)nn1` [I-84], the pIC50 was 8.15.

On to `Cc1ccc(C(=O)Nc2cc(C(C)(C)C)on2)cc1-n1cc(-c2cncc(N3C[C@@H](C)O[C@@H](C)C3)c2)nn1` [I-23], for which the pIC50 is 7.59.

`Cc1ccc(C(=O)Nc2cc(C(F)(F)F)ccn2)cc1-n1cc(-c2cncc(N3CC[C@@H](N(C)C)C3)c2)nn1` [I-80] had a pIC50 of 7.82.

In turn, `Cc1ccc(C(=O)Nc2cc(C(C)(C)C)on2)cc1-n1cc(-c2cncc(NCC3CCCO3)c2)nn1` (stereo not drawn) [I-34] gave a pIC50 of 8.05.

In turn, `Cc1ccc(NC(=O)c2ccc(C(C)(C)C)o2)cc1-n1cc(-c2cncc(N3CCN(CC(C)C)CC3)c2)nn1` [II-19] had a pIC50 of 8.30.

As to `Cc1ccc(C(=O)Nc2cc(C(C)(C)C)on2)cc1-n1cc(-c2cncc(N3CCCOCC3)c2)nn1` [I-17], the pIC50 was 7.80.

The compound `Cc1ccc(C(=O)Nc2cc(C(C)(C)C)on2)cc1-n1cc(-c2cncc(N3CCCN(C(C)C)CC3)c2)nn1` [I-52] had a pIC50 of 7.74.

Take `Cc1ccc(C(=O)Nc2cc(C(F)(F)F)ccn2)cc1-n1cc(-c2cncc(NC3CCN(C)CC3)c2)nn1` [I-76]: the pIC50 is 7.68.

`Cc1ccc(C(=O)Nc2cc(C(C)(C)C)on2)cc1-n1cc(-c2cncc(NCCF)c2)nn1` [I-22] had a pIC50 of 7.80.

As to `Cc1ccc(NC(=O)c2cc(C)n(C(C)(C)C)n2)cc1-n1cc(-c2cncc(N3CCN(C(C)C)CC3)c2)nn1` [II-36], the pIC50 was 7.89.

The compound `Cc1ccc(NC(=O)c2ccc(C(C)(C)C)s2)cc1-n1cc(-c2cncc(N3CCN(C(=O)OC(C)(C)C)CC3)c2)nn1` [II-23] gave a pIC50 of 6.85.

For `CCN1CCN(c2cncc(-c3cn(-c4cc(C(=O)Nc5cc(C(F)(F)F)ccn5)ccc4C)nn3)c2)CC1` [I-87], the pIC50 was 8.15.

The compound `COCCNc1cncc(-c2cn(-c3cc(C(=O)Nc4cc(C(C)(C)C)on4)ccc3C)nn2)c1` [I-36] had a pIC50 of 7.80.

Consider `CCCN1CCN(c2cncc(-c3cn(-c4cc(NC(=O)c5cc(C)n(C(C)(C)C)n5)ccc4C)nn3)c2)CC1` [II-37], for which the pIC50 was 7.96.

The compound `Cc1ccc(NC(=O)c2cc(C)n(C(C)(C)C)n2)cc1-n1cc(-c2cncc(N3CCOCC3)c2)nn1` [II-9] showed a negative-log IC50 (pIC50) of 7.74.

For `CCN1CCN(c2cncc(-c3cn(-c4cc(C(=O)Nc5cc(C(C)(C)C)on5)ccc4C)nn3)c2)CC1` [I-48], the pIC50 was 8.22.

`Cc1ccc(C(=O)Nc2cc(C(C)(C)C)on2)cc1-n1cc(-c2cncc(N3CCN(CC4CCCO4)CC3)c2)nn1` (stereo not drawn) [I-8] showed a pIC50 of 7.66.

Compound `Cc1ccc(C(=O)Nc2cc(C(C)(C)C)on2)cc1-n1cc(-c2cncc(N3CCC(N4CCN(C(C)C)CC4)C3)c2)nn1` (stereo not drawn) [I-92] gave a pIC50 of 8.10.

As for `Cc1ccc(C(=O)Nc2cc(C(F)(F)F)ccn2)cc1-n1cc(-c2cncc(NC3CC3)c2)nn1` [I-66], the pIC50 was 7.36.

As to `Cc1ccc(C(=O)Nc2cc(C(C)(C)C)on2)cc1-n1cc(-c2cncc(NCC(F)F)c2)nn1` [I-54], the pIC50 is 7.29.

Regarding `CCCCN1CCN(c2cncc(-c3cn(-c4cc(C(=O)Nc5cc(C(C)(C)C)on5)ccc4C)nn3)c2)CC1` [I-27], the negative-log IC50 (pIC50) was 7.82.

`Cc1ccc(C(=O)Nc2cc(C(C)(C)C)on2)cc1-n1cc(-c2cncc(N3CCC(CN(C)C)CC3)c2)nn1` [I-9] showed a pIC50 of 7.92.

Consider `Cc1ccc(C(=O)Nc2cc(C(C)(C)C)on2)cc1-n1cc(-c2cncc(N3CCN(CC(C)C)CC3)c2)nn1` [I-50], for which the pIC50 is 7.89.

The compound `Cc1ccc(C(=O)Nc2cc(C(C)(C)C)nn2C)cc1-n1cc(-c2cncc(N3CCN(C)CC3)c2)nn1` [I-55] showed a pIC50 of 7.80.

For the compound `Cc1ccc(NC(=O)c2cc(C(F)(F)F)ccn2)cc1-n1cc(-c2cncc(N3CCN(C)CC3)c2)nn1` [II-7], the pIC50 was 8.40.

Turning to `Cc1ccc(NC(=O)c2cc(CNC3CCN(C)CC3)c(C(C)(C)C)o2)cc1-n1cc(-c2cncc(N3CCOCC3)c2)nn1` [II-41], the pIC50 was 7.85.

A word on the pIC50: it is −log10 of the IC50, conventionally taken in molar units. A high value points to a small IC50.
